Source: PMC8402032, “Unsymmetric Cisplatin-Based Pt(IV) Conjugates Containing a PARP-1 Inhibitor Pharmacophore Tested on Malignant Pleural Mesothelioma Cell Lines” (Molecules, 2021)

Assays:
Format in all cases: cell-based, human
MSTO-211H cells [1] = assay: γH2AX foci immunofluorescence; conditions: 5 µM, 72 h
Experimental: This is in tune with the activation by reduction mechanism (Scheme 1) that is able to generate CDDP in the cells.
MSTO-211H cells were plated on slides and treated for 72 h with diluent or 5 μM complex 6. Slides were then fixed for 20 min with 4% paraformaldehyde (Sigma-Aldrich), rinsed with PBS, and then the cells were permeabilized for 5 min in 0.1% Triton X-100, followed by three 5 min PBS washes. Slides were treated thrice for 10 min in a blocking solution of 5% bovine serum albumin (BSA) (Invitrogen). Mouse anti-γH2AX antibody (Millipore) was added (1:100 in 1% BSA) and incubated for 1 h in a dark, humidified environment at room temperature. Slides were then exposed to a secondary goat anti-mouse antibody, FITC (1:100 in PBS) and incubated for 1 h in the dark, humidified environment at room temperature. Slides were rinsed thrice in PBS, mounted, and cell imaged with a Leica fluorescence microscope.
Figure 4 (A) Representative Western blot showing poly(ADP-ribose) (PAR) and PARP-1 expression following 72 h MSTO-211H cell treatment with diluent (Ctrl) or 5 µM concentrations of cisplatin (CDDP), 6, CDDP + 3-ABA combination (1:1 ratio), and 3-ABA alone. HSC70 protein was used as loading control. (B) Immunocytochemistry was used to capture representative γH2AX focus images following 72 h MSTO-211H cell treatment with diluent (Ctrl) or 5 µM of complex 6.

[2] = test system: BR95 (epithelioid) malignant pleural mesothelioma cells; assay: Cell viability assay (Trypan blue dye exclusion), BR95; conditions: 72 h treatment
Experimental: (§1) Complexes 6–9 were tested on a panel of human MPM cell lines together with CDDP and SAA1, added for comparison (Table 1). The half-maximal inhibitory concentration, IC50, was determined on MSTO-211H (biphasic phenotype), REN (epithelioid), BR95 (epithelioid), and MM98 (sarcomatoid) cancer cell lines to identify the most promising Pt(IV) conjugate to be further investigated. To determine the number of viable cells, the use of the dye exclusion assay was preferred to the colorimetric assay because of the heterogeneity in the energy metabolism between the different MPM cell lines. This may justify minor differences with respect to the previously published IC50 for CDDP [40].
(§2) Cells were seeded at a density of 10 × 10^4 cells per well in 6-well plates in RPMI medium supplemented with 10% fetal bovine serum (FBS), 100 μg mL^−1 streptomycin, and 10 μg mL^−1 penicillin and incubated overnight at 37 °C in a humidified environment containing 5% CO2 to allow adherence. Cisplatin was dissolved in 0.9% w/v aqueous NaCl brought to pH = 3 with HCl (final stock concentration 1 mM). The Pt(IV) complexes were dissolved in DMSO (final stock concentration 5 mM); the resulting solutions were microfiltered (0.45 μm) and their Pt content was checked by ICP-MS (see Section 3.5.2). These mother solutions were diluted in complete medium to the required concentration range.
(§3) Following 72 h of treatment with the diluent of the compound (Ctrl) or different doses of the Pt compounds, cells were trypsinized and stained with Trypan blue. The number of cells considered viable (unstained cells) was counted in a Bürker haemocytometer within 5 min after staining.

MSTO-211H cells [3] = assay: Cell uptake (intracellular Pt by ICP-MS); conditions: 10 μM, 4 h treatment, mean ± sd
Experimental: Cellular accumulation of compounds 6–9 was evaluated by means of the intracellular Pt uptake after 4 h treatment of MSTO-211H cells and expressed as ng Pt per 10^6 cells (Table 1). As expected, the Fmoc protection of 6 and 7 enhances the lipophilicity of the complexes, facilitating their cell uptake. Also the elongation of the organic linker from -(CH2)2- to -(CH2)6- increases (to a minor extent) the lipophilicity in 7 and 9 with respect to 6 and 8.
MSTO-211H cells were seeded in […] Petri dishes and challenged with the compounds and mixtures under investigations (10 μM) in complete medium. At the end of the exposure, cells were washed three times with phosphate buffered saline (PBS) and detached from the Petri dishes using 0.05% Trypsin 1X + 2% EDTA (HyClone, Thermo Fisher). The cells were harvested in fresh complete medium and an automatic cell counting device (Countess®, Life Technologies, Carlsbad, CA, USA) was used to measure the number and the mean diameter from every cell count. The harvested cells were transferred into a borosilicate glass tube and centrifuged at 1100× g rpm for 5 min at room temperature. The supernatant was carefully removed by aspiration, but about 200 μL of the supernatant was left in order to limit the cellular loss. Finally, the cellular pellets were stored at −80 °C. Platinum content determination was performed by ICP-MS (Thermo Optek X Series 2). Complete mineralization was obtained by the addition of 70% w/w HNO3 to each sample (after defrosting), followed by incubation for 1 h at 60 °C in an ultrasonic bath. Before the ICP-MS measurement, the HNO3 was diluted to a final 1% concentration. The instrumental settings were optimized to yield maximum sensitivity for platinum, and the most abundant isotopes of Pt (m/z = 195) and In (m/z = 115, used as internal standard) were quantified. The level of Pt found in cells after the treatment was normalized to the cell number and expressed as ng of Pt per 10^6 cells.

[4] = test system: REN (epithelioid) malignant pleural mesothelioma cells; assay: Cell viability assay (Trypan blue dye exclusion), REN; conditions: 72 h treatment
Experimental: as §1, §2, §3

[5] = test system: MSTO-211H (biphasic phenotype) malignant pleural mesothelioma cells; assay: Cell viability assay (Trypan blue dye exclusion), MSTO-211H; conditions: 72 h treatment
Experimental: as §1, §2, §3

IC50 ([2]; mean ± sd): 830 ± 40 nM
IC50 ([4]; mean ± sd): 1590 ± 70 nM
IC50 ([5]; mean ± sd, read-out: IC50 MSTO-211H): 690 ± 30 nM
Compound: CC(=O)[O][Pt]([NH2])([NH2])([Cl])([Cl])[O]C(=O)CCNC(=O)c1cccc(NC(=O)OCC2c3ccccc3-c3ccccc32)c1 [Compound 6, (OC-6-44)-Acetato[3-(3-(fmoc-amino)-benzamido)-propanoato]-diammine-dichlorido-platinum(IV)]
DNA damage (γH2AX foci) (MSTO-211H cells [1]): increased number of γH2AX foci
ratio IC50 (cisplatin)/IC50 (Pt(IV) complex), BR95 [2]: 2.6
Pt Uptake (MSTO-211H cells [3]): 10.64 ± 1.77 ng Pt per 10^6 Cells
ratio IC50 (cisplatin)/IC50 (Pt(IV) complex), REN [4]: 1.9
ratio IC50 (cisplatin)/IC50 (Pt(IV) complex), MSTO-211H [5]: 1.6
